Assay results as given in US20260200982A1, “HER RECEPTOR DERIVED PEPTIDES AND METHODS OF USE THEREOF” (Ramot at Tel-Aviv University Ltd., priority 2022, published 2026).
Each block holds one compound with its values, some of them ahead of it. Where a SMILES comes first, the peptide text is derived from it. Bridges are numbered along the chain shown (N, C = ends). [ ]: non-standard residue; d: D form. The star is where a group is joined. Myristoyl = CCCCCCCCCCCCCC(=O)*; S5 = C=CCCC[C@](C)(N)C(=O)O

Experiments:
[1] = test system: H-Ras-transformed Rat-1 cells (EJ cells); format: cell-based
Source text: Cell lines—Human breast cancer cell lines SKBR3 [Peles E et al. EMBO J. (1993) 12(3):961-71] and MCF7 [Faigenbloom L et al., Mol Syst Biol. (2015) 11(12):845] and human glioblastoma U87 [Goldberg L et al. Cancer Res. (2006) 66(24):11709-17] cell line, as well as Rat-1 fibroblast cells and H-Ras-transformed Rat-1 cells (EJ cells) [Marom M et al. J Biol Chem. (1995) 270(38):22263-70] and human Panc-1 and MIA PaCa-2 pancreatic cell lines (Rak R et al. Oncoscience. 2014 1(1):39-48; Weisz B et al. Oncogene (1999) 18, 2579±2588) were all grown in Dulbecco's modified Eagle's medium (DMEM; Biological Industries, Beithaemek, Israel). Human colorectal cancer cell lines DLD-1 (ATTC Cat No. CCL-221), HCT-116 (ATTC Cat No. CCL-247) and LNCaP prostate cancer cells were grown in Roswell Park Memorial Institute 1640 (RPMI 1640) medium and McCoy's 5A media, respectively (Sigma-Aldrich). All media were supplemented with antibiotics and 10% heat-inactivated fetal bovine serum (FBS; Gibco). Human breast cell line MCF10A [Bott A et al. Oncotarget. […]
Methylene blue viability assay—Cells were plated in 96-wells plates at cell densities of 1.5×10^3 (EJ, DLD-1), 3×10^3 (Rat-1, HCT-116, U87), 5×10^3 (SKBR3, MCF7) and 6×10^3 (MCF10A) cells/well. […] IC-50 values were calculated using a non-linear regression model (logarithmic inhibitor vs. normalized response-variable slope) with the GraphPad Prism 6 software.

MCF7 breast cancer cells = format: cell-based, human
Source text: (§1) Cell lines—Human breast cancer cell lines SKBR3 [Peles E et al. EMBO J. (1993) 12(3):961-71] and MCF7 [Faigenbloom L et al., Mol Syst Biol. (2015) 11(12):845] and human glioblastoma U87 [Goldberg L et al. Cancer Res. (2006) 66(24):11709-17] cell line, as well as Rat-1 fibroblast cells and H-Ras-transformed Rat-1 cells (EJ cells) [Marom M et al. J Biol Chem. (1995) 270(38):22263-70] and human Panc-1 and MIA PaCa-2 pancreatic cell lines (Rak R et al. Oncoscience. 2014 1(1):39-48; Weisz B et al. Oncogene (1999) 18, 2579±2588) were all grown in Dulbecco's modified Eagle's medium (DMEM; Biological Industries, Beithaemek, Israel). Human colorectal cancer cell lines DLD-1 (ATTC Cat No. CCL-221), HCT-116 (ATTC Cat No. CCL-247) and LNCaP prostate cancer cells were grown in Roswell Park Memorial Institute 1640 (RPMI 1640) medium and McCoy's 5A media, respectively (Sigma-Aldrich). All media were supplemented with antibiotics and 10% heat-inactivated fetal bovine serum (FBS; Gibco). Human breast cell line MCF10A [Bott A et al. Oncotarget. (2017) 8(27):43897-43914] was grown in Dulbeco's Modified Eagle's Medium/Nutrient Mixture F-12 HAM medium (DMEM F-12 HAM; Sigma-Aldrich), supplemented with antibiotics, 5% inactivated horse serum (HS; Invitrogen), 2 mM L-glutamine (Biological Industries, Beithaemek, Israel), 0.1 μg/ml cholera toxin (Sigma-Aldrich), 0.5 μg/ml hydrocortisone (Sigma-Aldrich), 10 μg/ml insulin (Biological Industries, Beithaemek, Israel) and 2 ng/ml EGF (R&D Systems). Cells were incubated at 37° C. in 5% CO2 in air, and the medium was changed every 3-4 days. Cells were passaged in trypsin/disodium ethylenediaminetetraacetic acid (Biological Industries, Beithaemek, Israel) when confluency reached 70%. One day prior to treatment the cells were plated at ~50% confluency in a medium supplemented with 10% FBS or 5% HS, accordingly.
(§2) Methylene blue viability assay—Cells were plated in 96-wells plates at cell densities of 1.5×10^3 (EJ, DLD-1), 3×10^3 (Rat-1, HCT-116, U87), 5×10^3 (SKBR3, MCF7) and 6×10^3 (MCF10A) cells/well. […] Cell number determination was performed as described previously. IC-50 values were calculated using a non-linear regression model (logarithmic inhibitor vs. normalized response-variable slope) with the GraphPad Prism 6 software.

[2] = test system: SKBR3 breast cancer cells; format: cell-based, human
Source text: as §1, §2

[3] = test system: non-cancerous (MCF10A) breast cell line; experiment: Methylene blue viability assay, MCF10A; format: cell-based, human
Source text: as §1
(§3) Methylene blue viability assay—Cells were plated in 96-wells plates at cell densities of 1.5×10^3 (EJ, DLD-1), 3×10^3 (Rat-1, HCT-116, U87), 5×10^3 (SKBR3, MCF7) and 6×10^3 (MCF10A) cells/well. On the following day, cells were treated as indicated, and grown for 72 hours. Cell number determination was performed as described previously. IC-50 values were calculated using a non-linear regression model (logarithmic inhibitor vs. normalized response-variable slope) with the GraphPad Prism 6 software.

[4] = test system: HCT-116 colon cancer cells; format: cell-based, human
Source text: as §1, §3

DLD-1 colon cancer cells = format: cell-based, human
Source text: as §1, §3

[5] = test system: Panc-1 pancreatic cancer cells; format: cell-based, human; conditions: 72 h
Source text: as §1, §3

U87 glioma cells = format: cell-based, human; conditions: 72 h
Source text: as §1, §3

EGFR (ErbB1) = experiment: Immunoblotting of cell lysates, EGFR phosphorylation; format: cell-based, human; conditions: SKBR3, DLD-1 and HCT116; 50 μM, 24 hours; FIG. 3B
Procedure: (§4) Lysate preparation and immunoblotting—Cells were seeded at cell densities of 1.5×10^5 (DLD-1), 1.8×10^5 (HCT-116) and 2.5×10^5 (SKBR3) cells/well, treated as indicated and grown for 24 hours. Following, cells were lysed in solubilization buffer; the lysates were cleared by centrifugation and a boiling gel sample buffer was added. Proteins were resolved by SDS-polyacrylamide gel electrophoresis through 10% polyacrylamide gels, and were electrophoretically transferred to nitrocellulose membranes. Membranes were blocked in TBST buffer containing 6% milk, and blotted with primary antibodies. Following, a secondary antibody linked to horseradish peroxidase was added. Immunoreactive bands were detected with the enhanced chemiluminescence reagent Immobilon Crescendo Western HRP substrate (WBLUR0100; Merck Millipore).

ErbB2 = experiment: Immunoblotting of cell lysates, ErbB2 phosphorylation; format: cell-based, human; conditions: SKBR3, DLD-1 and HCT116; 50 μM, 24 hours; FIG. 3B
Procedure: as §4

[6] = target: T1, ErbB2-nucleolin complexes (Homo sapiens, UniProt P19338); experiment: Proximity Ligation Assay (PLA); format: cell-based; conditions: SKBR3 cells, 53 μM, 48 hours, FIG. 3A
T1 construct: endogenous in cells; host or cells: SKBR3
T1 sequence (P19338 2-710 limits assumed, one chain of several): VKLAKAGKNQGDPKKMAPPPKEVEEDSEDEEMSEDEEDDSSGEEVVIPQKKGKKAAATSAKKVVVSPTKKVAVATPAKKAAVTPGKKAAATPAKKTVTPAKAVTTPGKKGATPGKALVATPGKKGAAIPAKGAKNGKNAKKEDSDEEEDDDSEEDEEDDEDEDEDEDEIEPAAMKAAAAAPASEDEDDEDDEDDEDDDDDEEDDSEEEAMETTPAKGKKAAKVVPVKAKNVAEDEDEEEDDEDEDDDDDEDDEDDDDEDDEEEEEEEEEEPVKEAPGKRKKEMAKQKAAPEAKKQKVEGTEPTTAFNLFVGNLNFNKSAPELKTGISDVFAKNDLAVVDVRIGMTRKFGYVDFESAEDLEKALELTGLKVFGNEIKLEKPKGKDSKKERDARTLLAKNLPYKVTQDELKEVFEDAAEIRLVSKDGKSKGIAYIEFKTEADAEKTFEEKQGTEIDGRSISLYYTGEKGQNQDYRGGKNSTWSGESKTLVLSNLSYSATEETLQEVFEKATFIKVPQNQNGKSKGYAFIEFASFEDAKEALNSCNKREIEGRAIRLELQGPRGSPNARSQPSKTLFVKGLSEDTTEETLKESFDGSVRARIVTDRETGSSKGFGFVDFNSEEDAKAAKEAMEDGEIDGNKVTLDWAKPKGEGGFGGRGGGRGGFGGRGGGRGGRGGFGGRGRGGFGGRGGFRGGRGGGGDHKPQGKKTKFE
Procedure: Proximity Ligation Assay (PLA)—For proximity ligation assay (PLA) cells were plated in a 16-wells Nunc Lab-Tek glass Chamber Slide System (178599; Thermo Scientific) at a density of 3.5×10^3 cells/well. 2 hours post-seeding the cells were treated with 53 μM of either TAT peptide (SEQ ID NO: 2) or TAT-NLS peptide (SEQ ID NO: 3) and grown for 48 hours. Following fixation, cells were incubated with rabbit anti-ErbB2 and mouse anti-nucleolin antibodies. PLA was performed using the Duolink In-Situ PLA probes: anti-rabbit MINUS and anti-mouse PLUS, and the Duolink In-Situ Detection Reagents Red kit (DUO92005; DUO92001; DUO92008, respectively; Sigma-Aldrich), according to the manufacturer's instructions. Nuclei were stained using the Duolink In-Situ Mounting Medium with DAPI (DUO82040; Sigma-Aldrich). Slides were visualized 24 hours post-staining and images were obtained using an Olympus motorized inverted research microscope Model IX81 (60× magnification). Signal intensity was determined using ImageJ software.

DLD-1 cells = experiment: Colony formation assay, DLD-1; format: cell-based, human; conditions: 20 μM, 72 hours, FIG. 12
Procedure: Colony formation assay—Cells were plated onto 12-well plate (6×10^4 cells/well) and treated with either PBS or myr-NLS at the IC50 concentration for 3 days. Cells were collected and replated in 10-cm plates (at 3 dilutions of 1:10, 1:20 and 1:40). After 7-14 days when visible and yet separated colonies were formed, the cells were fixed with 0.1% acetic acid in PBS, and stained with 0.4% crystal violet in 0.1% acetic acid. Total colonies area was calculated using the ImageJ program.
In addition, a colony formation assay was conducted to further examine the anti-tumor effect of the myr-NLS (SEQ ID NO: 5), myr-NLS2 (SEQ ID NO: 15) and myr-NLS4 (SEQ ID NO: 17) peptides. To this end, DLD-1 cells were treated or untreated for 72 hours with 20 μM of the myr-peptides. Cells were then seeded at the same dilutions in new plates until colonies were formed.

[7] = test system: DLD-1 colon cancer tumor xenografts; experiment: Colon Tumor Growth in Nude Mice; format: in vivo; conditions: DLD-1 xenografts, 25 μg/100 μl PBS intraperitoneal daily, FIGS. 14A-C
Procedure: Colon Tumor Growth in Nude Mice—Nude CD1-Nu mice (25-30 g) housed in barrier facilities on a 12-h light/dark cycle one week prior to the injection of tumor cells (day zero). On day zero, 5×10^6 DLD-1 cells were implanted subcutaneously just above the right femoral joint. Tumor size was measured every 3-4 days. When the tumors were apparently seen, the animals were divided randomly into three groups of mice [control vehicle treated, myr-NLS1 (SEQ ID NO: 5), myr-NLS4 (SEQ ID NO: 17)]. Treatment was performed by intraperitoneal injection of 25 μg in 100 μl PBS every day. Mice were weighed and tumors size was measured 3 times a week. At the end of the experiment, the mice were sacrificed, and the tumors were dissected and used for further analysis.

[8] = 30 μM peptide for 48 hours, FIG. 5A
[9] = 72 hours, 10 μM peptide, FIGS. 6A-B

- IC50 [1]: 11.6 µM
- IC50 (MCF7 breast cancer cells): 9.7 µM
- IC50 ([2]; 72 h): 18.9 µM
- IC50 ([4]; 72 h): 13.3 µM
- IC50 (DLD-1 colon cancer cells; 72 h): 9.4 µM
- IC50 [5]: 7.6 µM
- IC50 (U87 glioma cells): 15.9 µM
Compound: CCCCCCCCCCCCCC(=O)N[C@@H](CCCNC(=N)N)C(=O)N[C@@H](CCCNC(=N)N)C(=O)N[C@@H](CCCNC(=N)N)C(=O)N[C@@H](Cc1c[nH]cn1)C(=O)N[C@H](C(=O)N[C@@]1(C)CCCC=CCCC[C@@](C)(C(=O)N[C@@H](CC(C)C)C(=O)N[C@@H](CCCNC(=N)N)C(=O)N[C@@H](CCCNC(=N)N)C(=O)N[C@@H](CC(C)C)C(=O)N[C@@H](CC(C)C)C(=O)O)NC(=O)[C@H](CCCNC(=N)N)NC(=O)[C@H](CCCCN)NC(=O)[C@H](CCCNC(=N)N)NC1=O)[C@@H](C)CC [mN6-10, Myr-RRRHI(S5)RKR(S5)LRRLL] (Myristoyl-RRRHI[S5]RKR[S5]LRRLL-OH; staple 6-10; C-terminus assumed)
- viability of MCF7 breast cancer cells (MCF7 breast cancer cells; [8]): even more efficient than the myr-NLS peptide
- MCF7 cell viability (MCF7 breast cancer cells; [9]): decreased MCF7 cell viability
- viability of SKBR3 breast cancer cells [2, 8]: even more efficient than the myr-NLS peptide
- viability of non-cancerous MCF10 breast cells [3, 9]: had no effect

Compound: GRKKRRQRRRPPQRRRHIVRKRTLRRLL [TAT-NLS]
- ErbB1 phosphorylation (EGFR (ErbB1)): inhibited
- cell growth of MCF7 breast cancer cells (MCF7 breast cancer cells; 72 hours, FIGS. 2A-C): inhibited cell growth
- IC50 on cell viability (MCF7 breast cancer cells; MCF7, 72 hours, FIG. 2C): 49.5 µM
- cell growth of SKBR3 breast cancer cells ([2]; 72 hours, FIGS. 2A-C): inhibited cell growth
- IC50 on cell viability ([2]; SKBR, 72 hours, FIG. 2C): 83.1 µM
- ErbB2 phosphorylation (ErbB2): inhibited
- interaction between the ErbB2 receptor and nucleolin (PLA) [6]: reduced the interaction
- interaction between the ErbB2 receptor and nucleolin (PLA) ([6]; listed as TAL-NLS): disrupts the ErbB-nucleolin interaction
- viability of the non-cancerous cells MCF10 ([3]; FIGS. 2A-C): not affecting viability
- cell growth of HCT-116 colon cancer cells ([4]; 72 hours, FIGS. 2A-C): inhibited cell growth
- IC50 on cell viability ([4]; HCT116, 72 hours, FIG. 2C): 27.7 µM
- cell growth of DLD-1 colon cancer cells (DLD-1 colon cancer cells; 72 hours, FIGS. 2A-C): inhibited cell growth
- IC50 on cell viability (DLD-1 colon cancer cells; DLD-1, 72 hours, FIG. 2C): 40.2 µM

Compound: Myr-KRRQQKIRKYTMRRLL-OH (Myristoyl-KRRQQKIRKYTMRRLL-OH; SMILES CCCCCCCCCCCCCC(=O)N[C@@H](CCCCN)C(=O)N[C@@H](CCCNC(=N)N)C(=O)N[C@@H](CCCNC(=N)N)C(=O)N[C@@H](CCC(N)=O)C(=O)N[C@@H](CCC(N)=O)C(=O)N[C@@H](CCCCN)C(=O)N[C@H](C(=O)N[C@@H](CCCNC(=N)N)C(=O)N[C@@H](CCCCN)C(=O)N[C@@H](Cc1ccc(O)cc1)C(=O)N[C@H](C(=O)N[C@@H](CCSC)C(=O)N[C@@H](CCCNC(=N)N)C(=O)N[C@@H](CCCNC(=N)N)C(=O)N[C@@H](CC(C)C)C(=O)N[C@@H](CC(C)C)C(=O)O)[C@@H](C)O)[C@@H](C)CC) [myr-NLS2]
- colony formation (total colonies area) (DLD-1 cells): fewer and smaller colonies

Compound: Myr-RRKSIKKKRALRRFL-OH (Myristoyl-RRKSIKKKRALRRFL-OH; SMILES CCCCCCCCCCCCCC(=O)N[C@@H](CCCNC(=N)N)C(=O)N[C@@H](CCCNC(=N)N)C(=O)N[C@@H](CCCCN)C(=O)N[C@@H](CO)C(=O)N[C@H](C(=O)N[C@@H](CCCCN)C(=O)N[C@@H](CCCCN)C(=O)N[C@@H](CCCCN)C(=O)N[C@@H](CCCNC(=N)N)C(=O)N[C@@H](C)C(=O)N[C@@H](CC(C)C)C(=O)N[C@@H](CCCNC(=N)N)C(=O)N[C@@H](CCCNC(=N)N)C(=O)N[C@@H](Cc1ccccc1)C(=O)N[C@@H](CC(C)C)C(=O)O)[C@@H](C)CC) [myr-NLS4]
- colony formation (total colonies area) (DLD-1 cells): fewer and smaller colonies
- tumor growth (tumor size, tumor weight) [7]: significantly reduced tumor cell growth
